Reference: patent US9133148B2, “Carbamate compounds and of making and using same” (Abide Therapeutics, Inc., priority 2012, dated 2015)

Key:
Assay type in all cases: biochemical
[1] = biological target: ABHD6 (Mus musculus (Mouse), UniProt Q8R2Y0); experiment: Competitive ABPP, % inhibition at 1 uM, ABHD6
Procedure: (§1) In Vitro Competitive Activity-Based Protein Profiling.
(§2) Proteomes (mouse brain membrane fraction or cell lysates) ([…], 1.0 mg/mL total protein concentration) were preincubated with varying concentrations of inhibitors at 37° C. After 30 min, FP-Rh (1.0 μL, 50 μM in DMSO) was added and the mixture was incubated for another 30 min at 37° C. Reactions were quenched with SDS loading buffer (50 μL—4×) and run on SDS-PAGE.

[2] = biological target: FAAH (Mus musculus (Mouse), UniProt O08914); experiment: Competitive ABPP, % inhibition at 1 uM, FAAH
Procedure: as §1
as §2, with “SDS-PAGE. Following gel imaging, serine hydrolase activity was determined by measuring fluorescent intensity of gel bands corresponding to MAGL, ABHD6 and FAAH using ImageJ 1.43u software.” for “SDS-PAGE.”

[3] = biological target: MAGL (Mus musculus (Mouse), UniProt O35678); experiment: Competitive ABPP, % inhibition at 1 uM, MAGL
Procedure: as §1, §2

Sequence of FAAH (O08914 whole entry): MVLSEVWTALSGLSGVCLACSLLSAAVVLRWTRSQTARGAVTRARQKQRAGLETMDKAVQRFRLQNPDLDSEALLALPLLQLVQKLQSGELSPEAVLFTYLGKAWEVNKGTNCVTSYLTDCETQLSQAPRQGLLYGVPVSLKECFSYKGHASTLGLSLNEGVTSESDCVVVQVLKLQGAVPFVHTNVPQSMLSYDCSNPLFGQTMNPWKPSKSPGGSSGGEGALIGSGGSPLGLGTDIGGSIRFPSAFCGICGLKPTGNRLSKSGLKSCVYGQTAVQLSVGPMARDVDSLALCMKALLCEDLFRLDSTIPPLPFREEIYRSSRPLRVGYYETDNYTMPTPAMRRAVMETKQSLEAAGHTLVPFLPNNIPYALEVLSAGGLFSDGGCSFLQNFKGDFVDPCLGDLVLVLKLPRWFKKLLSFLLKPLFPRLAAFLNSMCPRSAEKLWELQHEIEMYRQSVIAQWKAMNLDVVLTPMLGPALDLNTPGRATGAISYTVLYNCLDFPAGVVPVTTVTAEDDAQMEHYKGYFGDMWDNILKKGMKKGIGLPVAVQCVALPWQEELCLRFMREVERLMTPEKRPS
Sequence of ABHD6 (Q8R2Y0 whole entry): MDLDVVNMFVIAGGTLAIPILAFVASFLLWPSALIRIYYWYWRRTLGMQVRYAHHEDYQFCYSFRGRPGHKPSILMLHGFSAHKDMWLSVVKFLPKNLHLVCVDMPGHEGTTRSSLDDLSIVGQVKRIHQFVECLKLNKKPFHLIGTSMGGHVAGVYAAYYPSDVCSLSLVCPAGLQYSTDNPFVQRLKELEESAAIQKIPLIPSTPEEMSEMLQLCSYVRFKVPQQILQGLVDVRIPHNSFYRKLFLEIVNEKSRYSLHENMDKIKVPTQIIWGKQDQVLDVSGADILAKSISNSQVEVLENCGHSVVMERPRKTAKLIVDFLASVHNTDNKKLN
Sequence of MAGL (O35678 whole entry): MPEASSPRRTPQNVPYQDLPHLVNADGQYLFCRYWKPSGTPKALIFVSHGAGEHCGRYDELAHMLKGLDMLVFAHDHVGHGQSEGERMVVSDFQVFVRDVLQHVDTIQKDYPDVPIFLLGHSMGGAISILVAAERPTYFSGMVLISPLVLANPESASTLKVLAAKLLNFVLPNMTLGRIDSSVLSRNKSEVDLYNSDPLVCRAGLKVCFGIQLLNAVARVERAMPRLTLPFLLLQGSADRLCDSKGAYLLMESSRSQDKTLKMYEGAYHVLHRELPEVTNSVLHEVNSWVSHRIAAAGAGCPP

Row | SMILES | inhibition at 1 µM [1] | inhibition at 1 µM [2] | inhibition at 1 µM [3]
1 | O=C(OC(C(F)(F)F)C(F)(F)F)N1CCN(Cc2ccc(N3CCOCC3)cc2C(F)(F)F)CC1 [Example 9aj, 1,1,1,3,3,3-hexafluoropropan-2-yl 4-[[4-(morpholin-4-yl)-2-(trifluoromethyl)phenyl]methyl]piperazine-1-carboxylate] | 25 to 75% | < 25% | 25 to 75%
2 | C[C@H]1CN(Cc2ccc(N3CCOCC3)cc2C(F)(F)F)CCN1C(=O)OC(C(F)(F)F)C(F)(F)F [Example 9j, 1,1,1,3,3,3-hexafluoropropan-2-yl(2S)-2-methyl-4-[[4-(morpholin-4-yl)-2-(trifluoromethyl)phenyl]methyl]piperazine-1-carboxylate] | 25 to 75% | < 25% | 25 to 75%
3 | COc1ccc(-c2cc(CN3CCN(C(=O)OC(C(F)(F)F)C(F)(F)F)CC3)no2)cc1 [Example 10a, 1,1,1,3,3,3-hexafluoropropan-2-yl 4-((5-(4-methoxyphenyl)isoxazol-3-yl)methyl)piperazine-1-carboxylate] | 25 to 75% | < 25% | > 75%
4 | C[C@@H]1CN(Cc2ccc(N3CCOCC3)cc2F)CCN1C(=O)OC(C(F)(F)F)C(F)(F)F [Example 9k, 1,1,1,3,3,3-hexafluoropropan-2-yl(2R)-4-[[2-fluoro-4-(morpholin-4-yl)phenyl]methyl]-2-methylpiperazine-1-carboxylate] | < 25% | < 25% | < 25%
5 | CC(C)c1cc(N2CCOCC2)ccc1CN1CCN(C(=O)OC(C(F)(F)F)C(F)(F)F)CC1 [Example 9bc, 1,1,1,3,3,3-hexafluoropropan-2-yl 4-[[4-(morpholin-4-yl)-2-(propan-2-yl)phenyl]methyl]piperazine-1-carboxylate] | < 25% | < 25% | 25 to 75%
6 | O=C(OC(C(F)(F)F)C(F)(F)F)N1CCN(Cc2cccc(Cl)c2C(=O)N2CCOCC2)CC1 [Example 9bf, 1,1,1,3,3,3-hexafluoropropan-2-yl 4-(3-chloro-2-(morpholine-4-carbonyl)benzyl)piperazine-1-carboxylate] | < 25% | < 25% | 25 to 75%
7 | O=C(OC(C(F)(F)F)C(F)(F)F)N1CCN(Cc2ccc(N3CCOCC3)cc2OC(F)(F)F)CC1 [Example 9ak, 1,1,1,3,3,3-hexafluoropropan-2-yl 4-[[4-(morpholin-4-yl)-2-(trifluoromethoxy)phenyl]methyl]piperazine-1-carboxylate] | 25 to 75% | < 25% | > 75%
8 | C[C@H]1CN(Cc2ccc(N3CCOCC3)cc2Cl)CCN1C(=O)OC(C(F)(F)F)C(F)(F)F [Example 9al, 1,1,1,3,3,3-hexafluoropropan-2-yl(2S)-4-[[2-chloro-4-(morpholin-4-yl)phenyl]methyl]-2-methylpiperazine-1-carboxylate] | 25 to 75% | < 25% | 25 to 75%
9 | C[C@H]1CN(Cc2ccc(N3CCOCC3)cc2F)CCN1C(=O)OC(C(F)(F)F)C(F)(F)F [Example 9i, 1,1,1,3,3,3-hexafluoropropan-2-yl(2S)-4-[[2-fluoro-4-(morpholin-4-yl)phenyl]methyl]-2-methylpiperazine-1-carboxylate] | 25 to 75% | < 25% | 25 to 75%

The remaining lines, values ahead:

Row | inhibition at 1 µM [1] | inhibition at 1 µM [2] | inhibition at 1 µM [3] | SMILES
10 | < 25% | < 25% | 25 to 75% | Cc1cccc(-c2ccc(CN3CCN(C(=O)OC(C(F)(F)F)C(F)(F)F)CC3)c(Oc3ccccc3)c2)c1 [Example 11r, 1,1,1,3,3,3-hexafluoropropan-2-yl 4-[[4-(3-methylphenyl)-2-phenoxyphenyl]methyl]piperazine-1-carboxylate]
11 | 25 to 75% | < 25% | > 75% | O=C(OC(C(F)(F)F)C(F)(F)F)N1CCN(Cc2ccc(-c3cccc(F)c3)cn2)CC1 [Example 11k, 1,1,1,3,3,3-hexafluoropropan-2-yl 4-[[5-(3-fluorophenyl)pyridin-2-yl]methyl]piperazine-1-carboxylate]
12 | 25 to 75% | < 25% | 25 to 75% | Cc1ccccc1-c1ccc(CN2CCN(C(=O)OC(C(F)(F)F)C(F)(F)F)CC2)nc1C [Example 11u, 1,1,1,3,3,3-hexafluoropropan-2-yl 4-[[6-methyl-5-(2-methylphenyl)pyridin-2-yl]methyl]piperazine-1-carboxylate]
13 | 25 to 75% | < 25% | > 75% | Cc1ccccc1-c1ccc(CN2CCN(C(=O)OC(C(F)(F)F)C(F)(F)F)CC2)c(C)n1 [Example 11b, 1,1,1,3,3,3-hexafluoropropan-2-yl 4-[[2-methyl-6-(2-methylphenyl)pyridin-3-yl]methyl]piperazine-1-carboxylate]
14 | 25 to 75% | < 25% | 25 to 75% | Cc1nc(-c2ccccc2F)ccc1CN1CCN(C(=O)OC(C(F)(F)F)C(F)(F)F)CC1 [Example 11c, 1,1,1,3,3,3-hexafluoropropan-2-yl 4-[[6-(2-fluorophenyl)-2-methylpyridin-3-yl]methyl]piperazine-1-carboxylate]
15 | 25 to 75% | < 25% | 25 to 75% | CC1CN(C(=O)OC(C(F)(F)F)C(F)(F)F)CCN1Cc1ccc(-c2ccccc2)cc1 (stereo not drawn) [Example 11a, 1,1,1,3,3,3-hexafluoropropan-2-yl 3-methyl-4-[(4-phenylphenyl)methyl]piperazine-1-carboxylate]
16 | > 75% | < 25% | > 75% | Cc1cc(-c2ccc(CN3CCN(C(=O)OC(C(F)(F)F)C(F)(F)F)CC3)c(F)c2)ccn1 [Example 11g, 1,1,1,3,3,3-hexafluoropropan-2-yl 4-[[2-fluoro-4-(2-methylpyridin-4-yl)phenyl]methyl]piperazine-1-carboxylate]
17 | 25 to 75% | < 25% | > 75% | Cc1cccc(-c2ccc(CN3CCN(C(=O)OC(C(F)(F)F)C(F)(F)F)CC3)nc2C)c1 [Example 11ad, 1,1,1,3,3,3-hexafluoropropan-2-yl 4-[[6-methyl-5-(3-methylphenyl)pyridin-2-yl]methyl]piperazine-1-carboxylate]
18 | 25 to 75% | < 25% | > 75% | Cc1cnccc1-c1ccc(CN2CCN(C(=O)OC(C(F)(F)F)C(F)(F)F)CC2)c(F)c1 [Example 11ab, 1,1,1,3,3,3-hexafluoropropan-2-yl 4-[[2-fluoro-4-(3-methylpyridin-4-yl)phenyl]methyl]piperazine-1-carboxylate]
19 | 25 to 75% | < 25% | 25 to 75% | Cc1cccc(-c2ccc(CN3CCN(C(=O)OC(C(F)(F)F)C(F)(F)F)CC3)c(C)c2)n1 [Example 11z, 1,1,1,3,3,3-hexafluoropropan-2-yl 4-[[2-methyl-4-(6-methylpyridin-2-yl)phenyl]methyl]piperazine-1-carboxylate]
20 | > 75% | < 25% | > 75% | Cc1cc(-c2cccnc2)ccc1CN1CCN(C(=O)OC(C(F)(F)F)C(F)(F)F)CC1 [Example 11l, 1,1,1,3,3,3-hexafluoropropan-2-yl 4-[[2-methyl-4-(pyridin-3-yl)phenyl]methyl]piperazine-1-carboxylate]
